Measurements as given in publication PMC6274284 (Molecules, 2016).

Key:
hGRX1 [1] = target: T1, hGRX1 (Homo sapiens, UniProt P35754, C83S); type: binding
hGRX1 [2] = target: T1, hGRX1; assay: biochemical; type: binding
hGRX1 [3] = target: T1, hGRX1; type: binding; remark: listed apart in the source

T1 sequence (P35754 whole entry C83S, looked up): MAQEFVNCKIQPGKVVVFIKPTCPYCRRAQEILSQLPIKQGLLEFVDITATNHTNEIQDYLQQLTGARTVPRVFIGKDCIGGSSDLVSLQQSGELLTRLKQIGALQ

Row | SMILES | MaxRel.STD hGRX1 (hGRX1 [1]) [%] | other results
1 | Cn1nc(C(=O)O)cc1-c1ccccc1 [RK246] | 0.6 | Kd (hGRX1 [2]): 5.22 ± 1.16 mM
2 | O=C(O)c1ccc(-n2cccc2)cc1 [RK207] | 0.5 | Kd (hGRX1 [2]): 2.45 ± 0.52 mM
3 | COCc1cc(=O)oc2cc(O)c(Cl)cc12 [RK450] | 37.1 | 
4 | COCc1cc(=O)oc2cc(N)ccc12 [RK411] | 13.7 | 
5 | C=CC(N)=O [acrylamide, reference compound] |  | Reaction half life, hGRX (hGRX; human): about 20 h
6 | OCc1cc(-c2cccs2)[nH]n1 [RK126] | 23.4 | 
7 | C=CC(=O)NCc1ccn(-c2ccc(C(=O)OC)cc2)c1 [compound 5, Methyl 4-(3-(Acrylamidomethyl)-1H-pyrrol-1-yl)benzoate] |  | Enhancement of rate of reaction over naked acrylamide, hGRX (hGRX): about 35 fold
8 | O=C(O)c1ccc(-c2cnco2)cc1 [RK036] | 2.1 | 
9 | COC(=O)c1cccc2cc[nH]c12 [RK028] | 11.2 | 
10 | Nc1ccccc1N1CCNCC1 [RK155] |  | trNOE binding result, hGRX1 (hGRX1 [3]): did not bind
11 | Nc1ccc(CN2CCOCC2)cc1 [RK428] | 0.6 | 
